Structures are written as SMILES.

What all share (experiment): Growth inhibitory activity of compounds on BaF3 cell lines stably transfected with kinase (MTS, 48 h)
Common to all, as to type: cell-based

Experiment [1] concerns the target T1, various mutants of kinase EGFR (BaF3 cell lines stably transfected with kinase) (Homo sapiens, UniProt P00533).
T1 construct: other: BaF3 cells stably transfected with EGFR Δ19Del; MTS, 48 h; other: BaF3 cell line stably transfected with EGFR Δ19Del
Conditions: BaF3 cell line stably transfected with EGFR Δ19Del, read-out: Δ19Del growth inhibitory activity IC50. Summed up: (§1)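 Growth is measured by MTS reduction (OD 490 nm) after 48 h compound exposure at up to 10 µM in 8 steps of 1/3. Inhibition is calculated against a 0.1% DMSO control and cell-free blank, and IC50 is derived from it.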

The target in experiment [2] is T2, various mutants of kinase EGFR (BaF3 cell lines stably transfected with kinase) (Homo sapiens, UniProt P00533, T790M, form not given).
T2 construct: other: BaF3 cells stably transfected with EGFR Δ19Del/T790M; MTS, 48 h; other: BaF3 cell line stably transfected with EGFR Δ19Del/T790M; MTS, 48
The following applies: BaF3 cell line stably transfected with EGFR Δ19Del/T790M, read-out: Δ19Del/ T790M growth inhibitory activity IC50. In short, it runs like this: as §1

Experiment [3] has as its target T3, various mutants of kinase EGFR (BaF3 cell lines stably transfected with kinase) (Homo sapiens, UniProt P00533, T790M/C797S, form not given).
T3 construct: other: BaF3 cells stably transfected with EGFR Δ19Del/T790M/C797S; MTS, 48; other: BaF3 cell line stably transfected with EGFR Δ19Del/T790M/C7
Conditions: BaF3 cell line stably transfected with EGFR Δ19Del/T790M/C797S, read-out: Δ19Del/T790M/ C797S growth inhibitory activity IC50. Summed up:
as §1

Experiment [4] has as its target T4, various mutants of kinase EGFR (BaF3 cell lines stably transfected with kinase) (Homo sapiens, UniProt P00533, L858R).
T4 construct: expressed in transfected cells; host or cells: BaF3
Conditions: BaF3 cell line stably transfected with EGFR L858R, read-out: L858R growth inhibitory activity IC50. Summed up: as §1

For experiment [5], the target named is T5, various mutants of kinase EGFR (BaF3 cell lines stably transfected with kinase) (Homo sapiens, UniProt P00533, L858R/T790M).
T5 construct: expressed in transfected cells; host or cells: BaF3
Conditions: BaF3 cell line stably transfected with EGFR L858R/T790M, read-out: L858R/ T790M growth inhibitory activity IC50. Summed up:
as §1

Experiment [6] addresses T6, various mutants of kinase EGFR (BaF3 cell lines stably transfected with kinase) (Homo sapiens, UniProt P00533, C797S/L858R/T790M).
T6 construct: expressed in transfected cells; host or cells: BaF3
The following applies: BaF3 cell line stably transfected with EGFR L858R/T790M/C797S, read-out: L858R/T790M/ C797S growth inhibitory activity IC50. Summed up: as §1

T4 sequence (P00533 25-1210 L858R): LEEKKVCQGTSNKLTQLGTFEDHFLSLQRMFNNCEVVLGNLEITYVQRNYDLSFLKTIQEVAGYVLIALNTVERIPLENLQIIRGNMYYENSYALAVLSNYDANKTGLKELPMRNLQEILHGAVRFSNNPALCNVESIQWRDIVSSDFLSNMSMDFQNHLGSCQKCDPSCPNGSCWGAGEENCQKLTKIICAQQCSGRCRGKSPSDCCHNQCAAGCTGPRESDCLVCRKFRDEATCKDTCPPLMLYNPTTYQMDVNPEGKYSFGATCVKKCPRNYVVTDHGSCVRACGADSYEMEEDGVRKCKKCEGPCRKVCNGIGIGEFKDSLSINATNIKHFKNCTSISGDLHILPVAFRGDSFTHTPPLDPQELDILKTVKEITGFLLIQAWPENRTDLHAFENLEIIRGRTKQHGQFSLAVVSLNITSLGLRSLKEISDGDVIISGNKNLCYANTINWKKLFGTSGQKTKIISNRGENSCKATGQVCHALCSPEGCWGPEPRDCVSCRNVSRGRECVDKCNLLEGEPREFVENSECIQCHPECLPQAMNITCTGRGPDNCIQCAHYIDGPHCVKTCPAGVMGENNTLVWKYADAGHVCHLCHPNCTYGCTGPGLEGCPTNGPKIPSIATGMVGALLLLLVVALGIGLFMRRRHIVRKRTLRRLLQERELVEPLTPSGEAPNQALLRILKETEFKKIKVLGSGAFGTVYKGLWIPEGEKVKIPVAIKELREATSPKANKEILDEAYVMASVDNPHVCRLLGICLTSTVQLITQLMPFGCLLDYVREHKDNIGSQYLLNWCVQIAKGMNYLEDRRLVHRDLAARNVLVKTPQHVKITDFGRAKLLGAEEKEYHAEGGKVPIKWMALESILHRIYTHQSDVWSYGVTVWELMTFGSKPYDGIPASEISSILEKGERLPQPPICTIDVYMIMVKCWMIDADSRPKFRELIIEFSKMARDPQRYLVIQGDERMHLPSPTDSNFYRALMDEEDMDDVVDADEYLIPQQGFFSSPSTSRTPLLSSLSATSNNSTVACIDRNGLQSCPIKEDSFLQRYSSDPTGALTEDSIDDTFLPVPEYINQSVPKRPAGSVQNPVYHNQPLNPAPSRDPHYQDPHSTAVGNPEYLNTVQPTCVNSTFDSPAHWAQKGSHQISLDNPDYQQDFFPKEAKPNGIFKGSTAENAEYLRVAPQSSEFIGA
T6 sequence (P00533 25-1210 T790M/C797S/L858R): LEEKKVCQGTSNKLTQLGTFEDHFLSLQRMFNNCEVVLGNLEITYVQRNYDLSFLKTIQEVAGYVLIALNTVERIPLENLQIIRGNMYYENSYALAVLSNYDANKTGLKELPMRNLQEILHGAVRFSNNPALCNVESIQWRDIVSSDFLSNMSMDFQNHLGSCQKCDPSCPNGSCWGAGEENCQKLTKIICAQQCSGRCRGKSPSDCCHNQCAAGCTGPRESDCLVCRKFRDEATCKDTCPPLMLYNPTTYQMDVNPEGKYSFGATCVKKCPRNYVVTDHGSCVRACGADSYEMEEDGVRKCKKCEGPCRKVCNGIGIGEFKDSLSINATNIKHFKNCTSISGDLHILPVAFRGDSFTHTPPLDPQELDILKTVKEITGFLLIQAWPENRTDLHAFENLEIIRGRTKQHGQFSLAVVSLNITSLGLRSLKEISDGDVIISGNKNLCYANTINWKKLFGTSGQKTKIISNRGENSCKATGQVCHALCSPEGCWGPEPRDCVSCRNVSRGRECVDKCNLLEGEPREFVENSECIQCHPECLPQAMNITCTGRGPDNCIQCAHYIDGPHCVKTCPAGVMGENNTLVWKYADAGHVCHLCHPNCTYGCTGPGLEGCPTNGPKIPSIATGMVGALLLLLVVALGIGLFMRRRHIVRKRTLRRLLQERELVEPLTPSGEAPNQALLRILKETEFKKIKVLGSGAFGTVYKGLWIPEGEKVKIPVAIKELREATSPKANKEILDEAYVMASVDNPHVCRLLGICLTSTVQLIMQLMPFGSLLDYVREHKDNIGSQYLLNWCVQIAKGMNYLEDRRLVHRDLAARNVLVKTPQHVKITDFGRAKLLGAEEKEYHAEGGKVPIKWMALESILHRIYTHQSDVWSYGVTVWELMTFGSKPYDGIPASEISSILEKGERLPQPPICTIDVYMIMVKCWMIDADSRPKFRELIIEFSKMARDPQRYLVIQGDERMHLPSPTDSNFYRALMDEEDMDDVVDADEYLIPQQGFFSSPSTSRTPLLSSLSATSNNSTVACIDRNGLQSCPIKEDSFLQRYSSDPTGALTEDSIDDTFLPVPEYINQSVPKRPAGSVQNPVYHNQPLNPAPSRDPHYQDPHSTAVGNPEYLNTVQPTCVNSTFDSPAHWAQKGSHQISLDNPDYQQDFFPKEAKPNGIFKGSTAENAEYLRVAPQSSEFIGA
T1 sequence (P00533 with tags, fused parts or gaps DEL746-750): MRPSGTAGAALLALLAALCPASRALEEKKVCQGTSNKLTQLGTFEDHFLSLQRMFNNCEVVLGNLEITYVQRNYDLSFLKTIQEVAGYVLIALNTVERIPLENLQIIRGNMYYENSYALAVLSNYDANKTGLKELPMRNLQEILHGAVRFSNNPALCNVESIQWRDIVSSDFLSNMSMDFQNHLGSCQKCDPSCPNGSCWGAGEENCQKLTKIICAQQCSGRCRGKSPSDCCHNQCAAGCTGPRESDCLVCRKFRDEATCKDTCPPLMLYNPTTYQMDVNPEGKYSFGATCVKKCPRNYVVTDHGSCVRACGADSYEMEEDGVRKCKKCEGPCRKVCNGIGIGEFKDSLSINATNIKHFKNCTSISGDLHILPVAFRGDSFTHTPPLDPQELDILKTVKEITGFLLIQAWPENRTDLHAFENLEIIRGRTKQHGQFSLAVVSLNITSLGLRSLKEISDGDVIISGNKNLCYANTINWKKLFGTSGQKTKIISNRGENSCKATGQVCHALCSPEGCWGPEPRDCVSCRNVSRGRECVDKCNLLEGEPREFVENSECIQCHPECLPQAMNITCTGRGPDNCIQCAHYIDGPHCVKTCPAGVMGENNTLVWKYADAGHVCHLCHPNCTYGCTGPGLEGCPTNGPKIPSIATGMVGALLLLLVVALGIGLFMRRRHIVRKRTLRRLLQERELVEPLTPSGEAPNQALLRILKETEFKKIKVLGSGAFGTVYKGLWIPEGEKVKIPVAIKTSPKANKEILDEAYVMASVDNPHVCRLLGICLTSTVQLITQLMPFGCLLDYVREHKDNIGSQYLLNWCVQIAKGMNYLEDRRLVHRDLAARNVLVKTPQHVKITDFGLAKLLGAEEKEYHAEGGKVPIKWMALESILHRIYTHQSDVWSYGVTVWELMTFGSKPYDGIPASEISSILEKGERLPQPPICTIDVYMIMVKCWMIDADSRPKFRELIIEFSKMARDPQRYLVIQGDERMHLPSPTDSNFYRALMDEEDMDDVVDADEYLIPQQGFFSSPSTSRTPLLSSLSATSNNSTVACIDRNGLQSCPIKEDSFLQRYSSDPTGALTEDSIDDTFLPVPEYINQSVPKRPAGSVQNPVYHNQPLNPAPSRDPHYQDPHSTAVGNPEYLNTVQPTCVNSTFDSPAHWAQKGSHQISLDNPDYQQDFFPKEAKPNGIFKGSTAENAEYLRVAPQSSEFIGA
T3 sequence (P00533 with tags, fused parts or gaps DEL746-750/T790M/C797S, form open): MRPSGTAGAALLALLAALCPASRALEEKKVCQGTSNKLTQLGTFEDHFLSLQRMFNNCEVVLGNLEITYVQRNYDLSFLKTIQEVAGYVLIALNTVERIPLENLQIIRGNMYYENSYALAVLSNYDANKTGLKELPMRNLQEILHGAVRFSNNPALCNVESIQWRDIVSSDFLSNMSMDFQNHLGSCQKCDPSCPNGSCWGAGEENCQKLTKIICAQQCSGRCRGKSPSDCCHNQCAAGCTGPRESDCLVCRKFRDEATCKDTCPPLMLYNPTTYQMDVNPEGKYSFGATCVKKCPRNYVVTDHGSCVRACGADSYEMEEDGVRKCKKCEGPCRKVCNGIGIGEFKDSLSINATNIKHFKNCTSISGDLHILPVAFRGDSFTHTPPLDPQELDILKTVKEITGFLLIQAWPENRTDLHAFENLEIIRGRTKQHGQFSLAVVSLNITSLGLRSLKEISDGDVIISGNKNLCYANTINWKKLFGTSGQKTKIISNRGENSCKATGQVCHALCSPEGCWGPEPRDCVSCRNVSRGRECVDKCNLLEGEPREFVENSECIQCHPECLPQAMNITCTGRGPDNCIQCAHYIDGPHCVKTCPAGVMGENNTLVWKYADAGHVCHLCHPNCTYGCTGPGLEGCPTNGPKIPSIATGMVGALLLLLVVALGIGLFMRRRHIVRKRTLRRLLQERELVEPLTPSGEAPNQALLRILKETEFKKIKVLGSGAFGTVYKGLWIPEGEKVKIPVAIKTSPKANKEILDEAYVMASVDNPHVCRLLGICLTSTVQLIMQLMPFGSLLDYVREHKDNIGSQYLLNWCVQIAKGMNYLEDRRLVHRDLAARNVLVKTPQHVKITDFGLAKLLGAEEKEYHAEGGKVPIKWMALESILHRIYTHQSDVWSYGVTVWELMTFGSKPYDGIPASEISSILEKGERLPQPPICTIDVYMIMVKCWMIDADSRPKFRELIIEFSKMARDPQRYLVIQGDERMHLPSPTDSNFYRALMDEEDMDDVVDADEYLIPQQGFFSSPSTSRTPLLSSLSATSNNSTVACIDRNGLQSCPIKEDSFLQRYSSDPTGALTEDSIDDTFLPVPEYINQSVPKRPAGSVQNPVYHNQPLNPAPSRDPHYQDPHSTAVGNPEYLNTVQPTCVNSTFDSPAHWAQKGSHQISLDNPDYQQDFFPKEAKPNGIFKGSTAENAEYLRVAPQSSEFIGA

Turning to `COc1cc(N2CCC(N3CCN(C)CC3)CC2)ccc1Nc1ncc(Cl)c(Nc2ccc3nccnc3c2N(C2CC2)S(C)(=O)=O)n1` [Compound I-303], the IC50 in experiment [1] was 50 to 500 nM; in experiment [2] it was 50 to 500 nM; in experiment [3], not above 50 nM; in experiment [4], 50 to 500 nM; in experiment [5], 50 to 500 nM; in experiment [6], not above 50 nM.

Consider `C=Cc1cc(Nc2ncc(Cl)c(Nc3ccc4nccnc4c3N(C3CC3)S(C)(=O)=O)n2)c(OC(F)(F)F)cc1N1CCC(N2CCN(C)CC2)CC1` [Compound I-304], for which the IC50 in experiment [1] is 50 to 500 nM; in experiment [2], not above 50 nM; in experiment [3], 50 to 500 nM; in experiment [4], 50 to 500 nM; in experiment [5], not above 50 nM; in experiment [6] it was 50 to 500 nM.

Regarding `COc1nc(N2CCC(N3CCN(C)CC3)CC2)ccc1Nc1ncc(Br)c(Nc2ccc3nccnc3c2N(C2CC2)S(C)(=O)=O)n1` [Compound I-305], the IC50 in experiment [1] is 50 to 500 nM; in experiment [2], 50 to 500 nM; in experiment [3], 50 to 500 nM; in experiment [4], 50 to 500 nM; in experiment [5] it was not above 50 nM; in experiment [6], 50 to 500 nM.

For the molecule `COc1nc(N2CCC(N3CCN(C)CC3)CC2)c(C)cc1Nc1ncc(Br)c(Nc2ccc3nccnc3c2N(C2CC2)S(C)(=O)=O)n1` [Compound I-306], the IC50 is 500 to 2500 nM in experiment [1]; 50 to 500 nM in experiment [2]; 500 to 2500 nM in experiment [3]; 50 to 500 nM in experiment [4]; 50 to 500 nM in experiment [5]; 500 to 2500 nM in experiment [6].

Take `C=Cc1cc(Nc2ncc(Br)c(Nc3ccc4nccnc4c3N(C3CC3)S(C)(=O)=O)n2)c(OC(F)(F)F)cc1N1CCC(N2CCN(C)CC2)CC1` [Compound I-307]: the IC50 was 500 to 2500 nM in experiment [1]; 50 to 500 nM in experiment [2]; 50 to 500 nM in experiment [3]; 500 to 2500 nM in experiment [4]; 50 to 500 nM in experiment [5]; 50 to 500 nM in experiment [6].

Turning to `COc1cc(N2CCC(N3CCN(C)CC3)CC2)c(CC2CC2)cc1Nc1ncc(Br)c(Nc2ccc3nccnc3c2N(C2CC2)S(C)(=O)=O)n1` [Compound I-308], the IC50 in experiment [1] was 50 to 500 nM; in experiment [2], not above 50 nM; in experiment [3], not above 50 nM; in experiment [4], 50 to 500 nM; in experiment [5], not above 50 nM; in experiment [6] it was 50 to 500 nM.

As for `COc1cc(N2CCN(C)CC2)c(C)cc1Nc1ncc(Br)c(Nc2ccc3nccnc3c2N(C2CC2)S(C)(=O)=O)n1` [Compound I-309], the IC50 is 50 to 500 nM in experiment [1]; not above 50 nM in experiment [2]; not above 50 nM in experiment [3]; not above 50 nM in experiment [4]; not above 50 nM in experiment [5]; not above 50 nM in experiment [6].

As for `CCc1cc(Nc2ncc(Br)c(Nc3ccc4nccnc4c3N(C3CC3)S(C)(=O)=O)n2)c(OC)cc1N1CCN(C)CC1` [Compound I-310], the IC50 in experiment [1] is 50 to 500 nM; in experiment [2] it was not above 50 nM; in experiment [3] it was not above 50 nM; in experiment [4], not above 50 nM; in experiment [5], not above 50 nM; in experiment [6], not above 50 nM.

For the molecule `COc1cc(N2CCC(N(C)C)CC2)c(C)cc1Nc1ncc(Br)c(Nc2ccc3nccnc3c2N(C2CC2)S(C)(=O)=O)n1` [Compound I-311], the IC50 in experiment [1] is 50 to 500 nM; in experiment [2], not above 50 nM; in experiment [3], not above 50 nM; in experiment [4], 50 to 500 nM; in experiment [5] it was not above 50 nM; in experiment [6], not above 50 nM.

On to `COc1cc(N2CCC(N(C)C)C2)c(C)cc1Nc1ncc(Br)c(Nc2ccc3nccnc3c2N(C2CC2)S(C)(=O)=O)n1` (stereo not drawn) [Compound I-312], for which the IC50 in experiment [1] is 50 to 500 nM; in experiment [2] it was not above 50 nM; in experiment [3], not above 50 nM; in experiment [4], 50 to 500 nM; in experiment [5], not above 50 nM; in experiment [6], not above 50 nM.

For `COc1cc(N2CCC(N3CCN(C)CC3)CC2)ccc1Nc1ncc(C)c(Nc2ccc3nccnc3c2N(C)S(C)(=O)=O)n1` [Compound I-313], the IC50 in experiment [1] was 50 to 500 nM; in experiment [2], 50 to 500 nM; in experiment [3], not above 50 nM; in experiment [4] it was 50 to 500 nM; in experiment [5], 50 to 500 nM; in experiment [6], 50 to 500 nM.

Regarding `CCc1cc(Nc2ncc(C)c(Nc3ccc4nccnc4c3N(C)S(C)(=O)=O)n2)c(OC(F)(F)F)cc1N1CCC(N2CCN(C)CC2)CC1` [Compound I-314], the IC50 in experiment [1] is 50 to 500 nM; in experiment [2], not above 50 nM; in experiment [3], not above 50 nM; in experiment [4], 50 to 500 nM; in experiment [5] it was not above 50 nM; in experiment [6], not above 50 nM.

For `CCc1cc(Nc2ncc(C)c(Nc3ccc4nccnc4c3N(C)S(C)(=O)=O)n2)c(OC)cc1N1CCN(C)CC1` [Compound I-315], the IC50 in experiment [1], in experiment [2], in experiment [3], in experiment [4], in experiment [5] and in experiment [6] was not above 50 nM throughout.

On to `CCc1cnc(Nc2ccc(N3CCC(N4CCN(C)CC4)CC3)cc2OC)nc1Nc1ccc2nccnc2c1N(C)S(C)(=O)=O` [Compound I-316], for which the IC50 was 50 to 500 nM in experiment [1]; 50 to 500 nM in experiment [2]; not above 50 nM in experiment [3]; 50 to 500 nM in experiment [4]; 50 to 500 nM in experiment [5]; 50 to 500 nM in experiment [6].

As for `CCc1cnc(Nc2cc(C)c(N3CCC(N4CCN(C)CC4)CC3)cc2OC)nc1Nc1ccc2nccnc2c1N(C)S(C)(=O)=O` [Compound I-317], the IC50 in experiment [1], in experiment [2], in experiment [3], in experiment [4], in experiment [5] and in experiment [6] was not above 50 nM throughout.

On to `CCc1cc(Nc2ncc(CC)c(Nc3ccc4nccnc4c3N(C)S(C)(=O)=O)n2)c(OC)cc1N1CCC(N2CCN(C)CC2)CC1` [Compound I-318], for which the IC50 in experiment [1], in experiment [2], in experiment [3], in experiment [4], in experiment [5] and in experiment [6] was not above 50 nM throughout.

Take `CCc1cc(Nc2ncc(CC)c(Nc3ccc4nccnc4c3N(C)S(C)(=O)=O)n2)ccc1N1CCC(N2CCN(C)CC2)CC1` [Compound I-319]: the IC50 in experiment [1], in experiment [2], in experiment [3], in experiment [4], in experiment [5] and in experiment [6] was not above 50 nM in each case.

For the molecule `CCc1cnc(Nc2cc(CC)c(N3CCC(N4CCN(C)CC4)CC3)nc2OC)nc1Nc1ccc2nccnc2c1N(C)S(C)(=O)=O` [Compound I-320], the IC50 in experiment [1], in experiment [2], in experiment [3], in experiment [4], in experiment [5] and in experiment [6] was not above 50 nM each time.

For `CCc1cc(Nc2ncc(CC)c(Nc3ccc4nccnc4c3N(C)S(C)(=O)=O)n2)c(OC(F)(F)F)cc1N1CCC(N2CCN(C)CC2)CC1` [Compound I-321], the IC50 in experiment [1] is 50 to 500 nM; in experiment [2] it was not above 50 nM; in experiment [3] it was not above 50 nM; in experiment [4], 50 to 500 nM; in experiment [5], 50 to 500 nM; in experiment [6], 50 to 500 nM.

On to `CCc1cc(Nc2ncc(CC)c(Nc3ccc4nccnc4c3N(C)S(C)(=O)=O)n2)c(OC)cc1N1CCN(C)CC1` [Compound I-322], for which the IC50 in experiment [1], in experiment [2], in experiment [3], in experiment [4], in experiment [5] and in experiment [6] was not above 50 nM throughout.

In the case of `CCc1cc(Nc2ncc(CC)c(Nc3ccc4nccnc4c3N(C)S(C)(=O)=O)n2)c(OC)cc1N1CCC(N(C)C)CC1` [Compound I-323], the IC50 in experiment [1], in experiment [2], in experiment [3], in experiment [4], in experiment [5] and in experiment [6] was not above 50 nM each time.

On to `CCc1cc(Nc2ncc(CC)c(Nc3ccc4nccnc4c3N(C)S(C)(=O)=O)n2)c(OC)cc1N1CCC(N(C)C)C1` (stereo not drawn) [Compound I-324], for which the IC50 in experiment [1], in experiment [2], in experiment [3], in experiment [4], in experiment [5] and in experiment [6] was not above 50 nM throughout.

The record behind these values is patent US20230310428A1, “EGFR INHIBITOR AND PREPARATION METHOD AND USE THEREOF” (HONGYUN BIOTECH CO., LTD., priority 2020, published 2023).
